Reference: patent US20210378241A1, “COMBINATION COMPRISING A BENZAMIDE HERBICIDE AND A PYRIDINE CARBOXYLIC ACID HERBICIDE, AND A METHOD FOR MAKING AND USING THE COMBINATION” (Generic Crop Science LLC, priority 2020, published 2021)

What was measured:
jimsonweed = conditions: 0.05 kg/ha; cited from earlier work
[1] = system: weeds in seedling alfalfa; assay: Field trial in seedling alfalfa, Brawley, Calif.: weed density (weeds counted on square yard quadrats); type: in vivo; conditions: use rates of Table 5
Excerpt: (§1) The objective of this study was to evaluate the performance of PRONAMIDE and IMAZETHAPYR in commercial alfalfa hay production in Brawley, Calif. Trial treatments applied were as follows:
(§2) Treatments were applied on seedling alfalfa on March 14th at second to third trifoliate stage (3-4 inches tall). Treatment applications were made using a research CO2 backpack sprayer calibrated to deliver 50 gallons of solution per acre operating at 30 PSI. Weeds on the plots were on average 2-3 inches tall. Weather conditions during application were 34.3% RH, air and soil temperatures were 68° F. and 56.3° F. respectively, and soil moisture was dry.
(§3) Trial was rated at 6, 13, 20, 27 and 34 days after product application (DAA). On each rating date, Percent phytotoxicity and weed control based on a 0 to 100% visual scale, and weed density (number of weeds counted on 3 square yard quadrats) per plot were conducted.
(§4) Data was checked for normality assumptions and analyzed using a univariate Analysis of Variance, and the Least Significant Difference (LSD) mean separation test at a significance level of (α=0.1). Significant differences (p<0.1) were found for the dependent variables assessed at all rating dates (See ANOVA tables). Overall, treatments 5 (Raptor 4), 4 (PRONAMIDE and IMAZETHAPYR) and treatment 3 (WW2019-2) consistently provided the best control (higher % control and lower weed densities). Treatment efficacy as evidenced by % burndown (percent control was higher than 70% in all treatments 3-5) and weed counts (remained steady or declined up to this rating date) peaked at 27 DAA and subsequently declined (weed counts increased and percent control declined) at 34 DAA.

velvetleaf = conditions: 0.10 kg/ha, regardless of the application method; cited from earlier work
[2] = system: weeds in seedling alfalfa; assay: Field trial in seedling alfalfa, Brawley, Calif.: percent weed control (burndown), 0 to 100% visual scale; type: in vivo; conditions: for Percent Weed Control (Burndown), mean: single application on seedling alfalfa, use rates of Table 5, 4 replicates; for Overall weed control (higher % control and lower weed densities), in words: all rating dates 6-34 DAA
Excerpt: as §1, §2, §3, §4

smooth pigweed = conditions: 0.05 to 0.14 kg ai/ha, regardless of application method or herbicide rate; cited from earlier work

**Q.** What does the source list for `CCc1cnc(C2=NC(C)(C(C)C)C(=O)N2)c(C(=O)O)c1` (centres unmarked) [IMAZETHAPYR, 2-[4,5-dihydro-4-methyl-4-(1-methylethyl)-5-oxo-1H-imidazol-2-yl]-5-ethyl-3-pyridinecarboxylic acid]?
**A.** Control of jimsonweed, better postemergence compared to soil applications (jimsonweed): 30%; Weed Density, mean ([1]; 6 DA-A): 35 Weeds per yd^2; Weed Density, mean ([1]; 13 DA-A): 25 Weeds per yd^2; Weed Density, mean ([1]; 20 DA-A): 29 Weeds per yd^2; Weed Density, mean ([1]; 27 DA-A): 24 Weeds per yd^2; Weed Density, mean ([1]; 34 DA-A): 39 Weeds per yd^2; Control of velvetleaf (velvetleaf): ≥ 90%; Percent Weed Control (Burndown), mean ([2]; 6 DA-A): 28%; Percent Weed Control (Burndown), mean ([2]; 13 DA-A): 33%; Percent Weed Control (Burndown), mean ([2]; 20 DA-A): 75%; Percent Weed Control (Burndown), mean ([2]; 27 DA-A): 79%; Percent Weed Control (Burndown), mean ([2]; 34 DA-A): 38%; Overall weed control (higher % control and lower weed densities), in words ([2]; listed as Treatment 3): good weed control; Overall weed control (higher % control and lower weed densities), in words ([2]; listed as WW2019-2): best control; Control of smooth pigweed (smooth pigweed): ≥ 90%

**Q.** Which “Weed Density, mean” value ([1]; 6 DA-A) does the source give for `C#CC(C)(C)NC(=O)c1cc(Cl)cc(Cl)c1` [PRONAMIDE, 3,5-dichloro-n-(1,1-dimethyl-2-propynyl) benzamide] here?
**A.** 51 Weeds per yd^2

**Q.** What about the “Weed Density, mean” value ([1]; 13 DA-A) of the same compound?
**A.** 41 Weeds per yd^2

**Q.** And the “Weed Density, mean” value ([1]; 20 DA-A)?
**A.** 42 Weeds per yd^2

**Q.** What about the “Weed Density, mean” value ([1]; 27 DA-A) of the same compound?
**A.** 43 Weeds per yd^2

**Q.** And the “Weed Density, mean” value ([1]; 34 DA-A)?
**A.** 81 Weeds per yd^2

**Q.** What about the “Percent Weed Control (Burndown), mean” value ([2]; 6 DA-A) of the same compound?
**A.** 15%

**Q.** And the “Percent Weed Control (Burndown), mean” value ([2]; 13 DA-A)?
**A.** 20%

**Q.** And the “Percent Weed Control (Burndown), mean” value ([2]; 20 DA-A)?
**A.** 38%

**Q.** What about the “Percent Weed Control (Burndown), mean” value ([2]; 27 DA-A) of the same compound?
**A.** 25%

**Q.** What about the “Percent Weed Control (Burndown), mean” value ([2]; 34 DA-A) of the same compound?
**A.** 8%

**Q.** What about the “Overall weed control (higher % control and lower weed densities), in words” value [2] of the same compound?
**A.** less beneficial weed control
